Experiments:
Plasmodium berghey = experiment: Blood schizontocidal activity in infected mice (ED50, s.c., four-fold administration); assay type: in vivo, Plasmodium berghey; male albino mice; settings: mice infected with Plasmodium berghey, first 3 h after infection and on three subsequent days, smears D+4
Method: They have a pronounced blood schizontocidal activity. The activity of the substances in accordance with the invention can be determined, for example, in the animal experiment described hereinafter: Male albino mice weighing 18-20 g are used as the experimental animals. They are kept in climatized rooms at 22°-23° C. in groups of 5 animals per cage. They receive ad libitum a diet feed with low PABA content and drinking water. On the first day of the experiment (DO) the experimental animals are infected with Plasmodium berghey by intravenously injecting into each of the experimental animals 0.2 ml of heparinized blood of infected donor mice. The donor blood is diluted so that it contains 10^7 parasitized erythrocytes per 0.2 ml. In untreated control animals the parasitemia normally reaches 70-80% on the fourth day after the infection (D+4) and the experimental animals die between days +5 to +8. The substances to be tested are dissolved or suspended in distilled water or in a mixture of Tween 80, alcohol (96%) and water. Generally, in each case 0.5 ml of this solution or suspension is administered subcutaneously to groups of 5 experimental animals. The treatment is effected for the first time 3 hours after the infection as well as on the three subsequent days. Suitable dilutions of the test compounds are used for the titration of the activity. Per experiment 10 animals are treated in the same manner with the solution or suspension medium. 24 hours after the last treatment (D+4) blood smears with blood from tail veins are prepared from all animals and stained with giemsa. The average erythrocyte infection rate (parasitemia in %) in the control group as well as in the groups which have been treated with the compounds to be tested is determined by counting under the microscope. The difference in the average value of the infection rate between control group (100%) and the treated groups is calculated and expressed as the percentage reduction. The ED50 is determined mathematically from the results obtained. The ED50 in mg/kg is that dosage which, after four-fold administration, reduces to 50% the average erythrocyte infection rate in comparison to the control group. The results which have been obtained with representative members of the class of substance defined by formula I in the previously described experiment are compiled in the following Table. Moreover, the Table contains data concerning the toxicity of some of these compounds.

[1] = Toxicity, single oral administration to mice; settings: mouse, in vivo, p.o., no toxic symptoms at the dosage indicated, read-out: Toxicity, Dosage (no toxic symptoms observed at this amount)
Description: The results which have been obtained with representative members of the class of substance defined by formula I in the previously described experiment are compiled in the following Table. Moreover, the Table contains data concerning the toxicity of some of these compounds.

Structure (SMILES) | Activity ED50 (dosage which, after four-fold administration, reduces to 50% the average erythrocyte infection rate versus control) (Plasmodium berghey) | NOAEL [1]
CCCCCCCC[C@@]1(C)OO[C@@H]2C[C@H]1CC(=O)[C@@H]2C [(CH2)7CH3 (1R, 4R, 5S, 8R), (1R,4R,5S,8R)-4,8-dimethyl-4-octyl-2,3-dioxabicyclo[3.3.1]nonan-7-one] | 6.4 mg/kg | –
CCCCCCCC[C@]1(C)OO[C@@H]2C[C@H]1CC(=O)[C@@H]2C [(CH2)7CH3 (1R, 4S, 5S, 8R), (1R,4S,5S,8R)-4,8-dimethyl-4-octyl-2,3-dioxabicyclo[3.3.1]nonan-7-one] | 5.2 mg/kg | –
CCCCCCCCC[C@@]1(C)OO[C@@H]2C[C@H]1CC(=O)[C@@H]2C [(CH2)8CH3 (1R, 4R, 5S, 8R), (1R,4R,5S,8R)-4.8-dimethyl-4-nonyl-2,3-dioxabicyclo[3.3.1]nonan-7-one] | 3.6 mg/kg | –
CCCCCCCCC[C@]1(C)OO[C@@H]2C[C@H]1CC(=O)[C@@H]2C [(CH2)8CH3 (1R, 4S, 5S, 8R), (1R,4S,5S,8R)-4,8-dimethyl-4-nonyl-2,3-dioxabicyclo[3.3.1]nonan-7-one] | 6.0 mg/kg | –
CCCCCCCCCC[C@@]1(C)OO[C@@H]2C[C@H]1CC(=O)[C@@H]2C [(CH2)9CH3 (1R, 4R, 5S, 8R), (1R,4R,5S,8R)-4-decyl-4,8-dimethyl-2,3-dioxabicyclo[3.3.1]nonan-7-one] | 5.2 mg/kg | –
CCCCCCCCCC[C@]1(C)OO[C@@H]2C[C@H]1CC(=O)[C@@H]2C [(CH2)9CH3 (1R, 4S, 5S, 8R), (1R,4S,5S,8R)-4-decyl-4,8-dimethyl-2,3-dioxabicyclo[3.3.1]-nonan-7-one] | 3.4 mg/kg | –
CCCCCCCCCCC[C@@]1(C)OO[C@@H]2C[C@H]1CC(=O)[C@@H]2C [(CH2)10CH3 (1R, 4R, 5S, 8R), (1R,4R,5S,8R)-4,8-dimethyl-4-undecyl-2,3-dioxabicyclo[3.3.1]nonan-7-one] | 5.2 mg/kg | 3000 mg/kg
CCCCCCCCCCC[C@]1(C)OO[C@@H]2C[C@H]1CC(=O)[C@@H]2C [(CH2)10CH3 (1R, 4S, 5S, 8R), (1R,4S,5S,8R)-4,8-dimethyl-4-undecyl-2,3-dioxabicyclo[3.3.1]nonan-7-one] | 3.4 mg/kg | 3000 mg/kg
CCCCCCCCCCC[C@@]1(C)OO[C@H]2C[C@@H]1CC(=O)[C@H]2C [(CH2)10CH3 (1S, 4R, 5R, 8S), (1S,4R,5R,8S)-4,8-dimethyl-4-undecyl-2,3-dioxabicyclo[3.3.1]nonan-7-one] | 4.6 mg/kg | –
CCCCCCCCCCC[C@]1(C)OO[C@H]2C[C@@H]1CC(=O)[C@H]2C [(CH2)10CH3 (1S, 4S, 5R, 8S), (1S,4S,5R,8S)-4,8-dimethyl-4-undecyl-2,3-dioxabicyclo[3.3.1]nonan-7-one] | 5.9 mg/kg | –
CCCCCCCC/C=C/[C@]1(C)OO[C@@H]2C[C@H]1CC(=O)[C@@H]2C [CHCH(CH2)7CH3 (1R, 4R, 5S, 8R), (1R,4R,5S,8R)-4-[(E)-1-decenyl]-4.8-dimethyl-2,3-dioxabicyclo[3.3.1]nonan-7-one] | 6.2 mg/kg | –
CCCCCCCC/C=C/[C@@]1(C)OO[C@@H]2C[C@H]1CC(=O)[C@@H]2C [CHCH(CH2)7CH3 (1R, 4S, 5S, 8R), (1R,4S,5S,8R)-4-[(E)-1-decenyl]-4,8-dimethyl-2,3-dioxabicyclo[3.3.1]nonan-7-one] | 4.5 mg/kg | –
C[C@H]1C(=O)C[C@@H]2C[C@H]1OO[C@]2(C)/C=C\c1cc(C(F)(F)F)nc2cc(C(F)(F)F)ccc12 [drawing 9 (1R, 4S, 5S, 8R)] | 6.2 mg/kg | –
C[C@@H]1C(=O)C[C@H]2C[C@@H]1OO[C@@]2(C)/C=C\c1cc(C(F)(F)F)nc2cc(C(F)(F)F)ccc12 [drawing 9 (1S, 4R, 5R, 8S)] | 5.4 mg/kg | –
C[C@H]1C(=O)C[C@@H]2C[C@H]1OO[C@]2(C)/C=C\c1cc(C(F)(F)F)nc2cc(C(F)(F)F)ccc12 [drawing 9] | – | 6000 mg/kg
C[C@@H]1C(=O)C[C@H]2C[C@@H]1OO[C@@]2(C)/C=C\c1ccc(Cl)cc1Cl [drawing 10 (1S, 4R, 5R, 8S)] | 4.6 mg/kg | –
